Assay results as given in patent US9308214B2, “Method for moderately increasing the proton conductivity of biological membranes with the aid of mitochondria-targeted delocalized cations” (MITOTECH S.A., priority 2008, dated 2016).

Experiments:
[1] = Protonophore activity on black membrane model (diffusion potential on lipid bilayer); conditions: C12-TPP 1 μM in both compartments; ΔpH=1 by KOH; palmitic acid 1 mg/ml in membrane vs absent; pH 7.5
Procedure: To test penetrating ability of mitochondria-targeted compounds of structure (I), a method based on the ability of ions to penetrate through the bilayer phospholipid membrane moving along concentration gradient was used. The two chambers filled with an aqueous solution are separated by the bilayer membrane, the compound tested is added to one of the chambers. If a charged compound is capable of penetrating through the bilayer membrane, fast diffusion of the compound from the chamber with its high concentration to the chamber with its low concentration occurs, thus difference in the potentials is formed on the membrane. For ions carrying one charge and capable of passive penetrating through the membrane, the 10-fold concentration gradient allows to produce the potential of 60 mV (according to the Nernst equation).
This method was used in various studies on the ability of ions to penetrate through a bilipid membrane and is described in Starkov, et al. (1997) Biochem. Biophys. Acta, 1318:159-172. With this method, C12-TPP (compound of structure (I)) was tested.
Experiments were carried out in a Teflon cuvette having two compartments, and in a 0.6-mm hole between the two compartments the membrane was formed. Medium contained 50 mM Tris-HCl, 100 mM KCl, pH=7.5. ΔpH=1 was created by adding KOH to one of the cuvette compartments. […]

[2] = tested on: yeast Saccharomyces cerevisiae; assay: Programmed death in yeast induced by amiodarone (colony survival); type: cell-based; conditions: 80 μM amiodarone; for survival of yeast cells (protective effect, in words): TPP tested from 100 nM to 400 nM; for survival of yeast cells: 1 hr at 30° C., survival without compound 2 percent, 3 independent experiments, p below 0.05
Excerpt: Amiodarone (a calcium channel blocker) causes the death of the yeast Saccharomyces cerevisiae which by a number of features resembles apoptosis in higher eukaryotes. In the cells, amiodarone induces activation of a cascade of events leading to formation of reactive oxygen species and subsequent cell death. […] A source of formation of reactive oxygen species induced by amiodarone is a hyperpolarized mitochondrium.
The following compounds of structure (I) (SKQ1, SKQ3, and C12TPP) were selected for this study. […] Then a compound of structure (I) or mock and 80 μM amiodarone were added to the cell suspension. Cells were incubated for 1 hr at 30° C. and afterwards transferred to solid YPD medium containing 2% bactoagar. The number of colonies was counted after 2 days of incubation on solid medium. 100% survival corresponds to the number of colonies from zero time-point transferred to solid medium prior to addition of amiodarone.

[3] = Fluorescence correlation spectroscopy of SkQR1 micelles in aqueous solution with fatty acid (stearate); type: physicochemical
Procedure: Fluorescence correlation spectroscopy (FCS) is often used to study micellization of surfactants. In one report (Lu, et al. (2006) Analytica Chimica Acta, 556:216-225), R18, i.e., rhodamine with covalently attached fat tail was used as a marker. R18 itself forms large and poorly fluorescent aggregates in aqueous solution resulting in a small number of particles in the confocal volume (N) and a small fluorescence signal. When a detergent was added at a concentration above its CMC (the critical micelle concentration), an increase in total fluorescence and a significant increase in the number of particles N occurred. […] That was associated with lower diffusion coefficient of detergent micelles as compared to the R18 aggregates.
FIGS. 6A and B show the effect of a fatty acid (stearate) on the autocorrelation function of SkQR1 in water. […] For example, the number of particles in the confocal volume sharply increases. The constant of micelle formation for stearate is about 0.3 mM. In this case, fragmentation of the SkQR1 aggregates induced by such low concentrations of the fatty acid occurs. This fragmentation decreases the degree of the self-quenching of fluorescence that increases the total signal. […] The constant of micelle formation for anionic surfactants decreases under the influence of cationic surfactants or polymers. In that case, the total fluorescence signal was 141 kHz. […] The total fluorescence signal was 63 kHz that points to the beginning of the self-quenching of the dye in the micelles.
The fluctuations of the fluorescence signal in this case have no diffusion component yet. This process may be the output/input of SkQR1 molecules from water into micelles that can lead to fluctuations of the fluorescence due to the different quantum yield of fluorescence of the dye in polar and non-polar environments (Zettl, et al. (2005) J. Phys. Chem. B. 109:13397-13401).

CCCCCCCCCCCC[P+](c1ccccc1)(c1ccccc1)c1ccccc1 [C12-TPP, dodecyl triphenylphosphonium]
diffusion potential (ΔΨ) in response to ΔpH creation [1]: presence of a fatty acid in the membrane facilitates an increase in diffusion potential | survival of yeast cells (protective effect, in words) [2]: even more effective than the tested antioxidants | optimum concentration of the protective effect ([2]; pronounced concentration dependence): 200 nM

COc1c(O)c(C)c(CCCCCCCCCC[P+](c2ccccc2)(c2ccccc2)c2ccccc2)c(O)c1OC [MitoQ]
survival of yeast cells [2]: 8%

Cc1c(O)cc(CCCCCCCCCC[P+](c2ccccc2)(c2ccccc2)c2ccccc2)c(O)c1C [SkQ1]
survival of yeast cells (protective effect, in words) [2]: significantly increase the survival

Cc1c(C)c(O)c(CCCCCCCCCC[P+](c2ccccc2)(c2ccccc2)c2ccccc2)c(C)c1O [SkQ3]
survival of yeast cells (protective effect, in words) [2]: significantly increase the survival

CC/N=c1/cc2oc3cc(NCC)c(C)cc3c(-c3ccccc3C(=O)OCCCCCCCCCCC3=CC(=O)C(C)=C(C)C3=O)c-2cc1C [SkQR1]
fluorescence signal from the sample ([3]; 1.5 μg/ml (about 5 μM) stearate): 67 kHz | aggregation state in aqueous solution ([3]; aggregates degrade in presence of low concentrations of fatty acids): forms micelles (or large aggregates) in aqueous solution | total fluorescence signal ([3]; further increase in concentration of stearate (above 50 μM)): 63 kHz | fluorescence signal from the sample ([3]; in water, absence of stearate): 44 kHz | total fluorescence signal ([3]; stearate up to 50 μM): 141 kHz | survival of yeast cells [2]: 7%
